Assays:
[1] = target: T1, MAP kinase-interacting serine/threonine-protein kinase 2 (Homo sapiens, UniProt Q9HBH9); test: Inhibition of recombinant human N-terminal GST-tagged MNK2 (1 to 465 residues) expressed in baculovirus expression system using TATKSGSTTKNR as substrate preincubated for 10 mins followed by ATP addition and measured after 40 mins by luminescence based assay
Target sequence in this assay (Q9HBH9 whole entry, the tested form may be a part): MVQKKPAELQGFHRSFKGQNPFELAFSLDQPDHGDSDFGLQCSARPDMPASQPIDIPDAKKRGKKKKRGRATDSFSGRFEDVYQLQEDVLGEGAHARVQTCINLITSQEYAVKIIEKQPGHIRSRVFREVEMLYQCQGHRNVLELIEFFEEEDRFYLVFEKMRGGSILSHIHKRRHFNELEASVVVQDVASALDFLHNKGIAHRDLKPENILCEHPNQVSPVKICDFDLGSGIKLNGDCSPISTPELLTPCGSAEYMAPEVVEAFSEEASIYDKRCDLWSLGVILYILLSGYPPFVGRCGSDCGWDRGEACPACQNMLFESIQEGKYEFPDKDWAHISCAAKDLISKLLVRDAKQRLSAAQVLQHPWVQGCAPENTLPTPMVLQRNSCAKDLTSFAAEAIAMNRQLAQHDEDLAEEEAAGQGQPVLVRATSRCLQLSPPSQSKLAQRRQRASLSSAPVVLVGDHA

HCT-116 = test: Antiproliferative activity against human HCT-116 cells assessed as reduction in cell viability at 20 uM incubated for 72 hrs by MTT assay relative to control; type: functional
TMD8 = test: Antiproliferative activity against human TMD8 cells assessed as reduction in cell viability incubated for 72 hrs by MTT assay; type: functional, cell-based; conditions: TMD8, 72 h
MDA-MB-435 = test: Antiproliferative activity against human MDA-MB-435 cells assessed as reduction in cell viability at 20 uM incubated for 72 hrs by MTT assay relative to control; type: functional
[2] = Antiproliferative activity against […] cells assessed as reduction in cell viability at 20 uM incubated for 72 hrs by MTT assay relative to control; type: functional, Mus musculus
MV4-11 = test: Antiproliferative activity against human MV4-11 cells assessed as reduction in cell viability incubated for 72 hrs by MTT assay; type: functional, cell-based; conditions: MV4-11, 72 h
[3] = target: T2, MAP kinase-interacting serine/threonine-protein kinase 1 (Homo sapiens, UniProt Q9BUB5); test: Inhibition of MNK1 (unknown origin) at 100 nM incubated for 60 mins by HTRF assay
Target sequence in this assay (Q9BUB5 whole entry, looked up): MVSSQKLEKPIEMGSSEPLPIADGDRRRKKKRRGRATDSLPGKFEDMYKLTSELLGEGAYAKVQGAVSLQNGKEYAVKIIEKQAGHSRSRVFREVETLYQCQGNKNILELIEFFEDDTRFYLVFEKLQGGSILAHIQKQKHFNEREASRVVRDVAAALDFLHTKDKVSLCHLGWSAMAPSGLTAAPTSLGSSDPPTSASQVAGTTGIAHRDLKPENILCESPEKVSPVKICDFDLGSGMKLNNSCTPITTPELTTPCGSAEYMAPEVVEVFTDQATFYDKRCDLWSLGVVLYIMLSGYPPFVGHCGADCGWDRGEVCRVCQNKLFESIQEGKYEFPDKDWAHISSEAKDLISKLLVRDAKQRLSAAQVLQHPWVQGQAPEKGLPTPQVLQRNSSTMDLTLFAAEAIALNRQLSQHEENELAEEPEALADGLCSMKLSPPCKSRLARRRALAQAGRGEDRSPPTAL

K562 = test: Antiproliferative activity against human K562 cells assessed as reduction in cell viability incubated for 72 hrs by MTT assay; type: functional, cell-based; conditions: K562, 72 h
[4] = target: T1, MAP kinase-interacting serine/threonine-protein kinase 2; test: Inhibition of MNK2 (unknown origin) at 100 nM incubated for 60 mins by HTRF assay
Target sequence in this assay (Q9HBH9 whole entry, looked up, the tested form may be a part): as the sequence (Q9HBH9 whole entry, the tested form may be a part) above

[5] = target: T2, MAP kinase-interacting serine/threonine-protein kinase 1; test: Inhibition of recombinant human N-terminal DYKDDDDK-tagged MNK1(1 to 424 residues) expressed in baculovirus expression system using TATKSGSTTKNR as substrate preincubated for 10 mins followed by ATP addition and measured after 40 mins by luminescence based assay
Target sequence in this assay (Q9BUB5 whole entry): as the sequence (Q9BUB5 whole entry, looked up) above

A549 = test: Antiproliferative activity against human A549 cells assessed as reduction in cell viability incubated at 20 uM for 72 hrs by MTT assay relative to control; type: functional

| SMILES | IC50 [1] | inhibition at 20 µM (HCT-116) | IC50 (TMD8) | inhibition at 20 µM (MDA-MB-435) | inhibition at 20 µM [2] | IC50 (MV4-11) | inhibition [3] | IC50 (K562) | inhibition [4] | IC50 [5] | inhibition at 20 µM (A549) |
| --- | --- | --- | --- | --- | --- | --- | --- | --- | --- | --- | --- |
| Cc1cc(Nc2cc(N3CCN(C)CC3)ncn2)c(=O)n2c1C(=O)NC21CCCCC1 | 0.0421 µM | 65.2% | 4.81 µM | 44.3% | 38.8% | > 20 µM | 54.4% | 17.9 µM | 66.8% | 0.0512 µM | 39% |
| Cc1cc(Nc2nccc(N)n2)c(=O)n2c1C(=O)NC21CCCCC1 | > 0.5 µM |  |  |  |  |  | 33.2% |  | 30.2% | > 0.5 µM |  |
| Cc1cc(Nc2cc(C)c3n(c2=O)C2(CCCCC2)NC3=O)ccn1 | 0.398 µM |  |  |  |  |  | 26.8% |  | 45.2% | 0.422 µM |  |
| Cc1cc(Nc2ccnc(N)c2)c(=O)n2c1C(=O)NC21CCCCC1 | 0.0482 µM | 42.2% | 11.2 µM | 37.7% | 30.1% | > 20 µM | 72.5% | > 20 µM | 70.5% | 0.0523 µM | 21.5% |
| Cc1cc(Nc2cc(N3CCC(N)CC3)ncn2)c(=O)n2c1C(=O)NC21CCCCC1 | 0.082 µM | 46.8% | 9.96 µM | 42% | 36.5% | > 20 µM | 62.7% | 17.7 µM | 64.3% | 0.125 µM | 50.1% |
| Cc1cc(Nc2cccnn2)c(=O)n2c1C(=O)NC21CCCCC1 | > 0.5 µM |  |  |  |  |  | 25.9% |  | 23.9% | > 0.5 µM |  |
| Cc1cc(Nc2ccccn2)c(=O)n2c1C(=O)NC21CCCCC1 | > 0.5 µM |  |  |  |  |  | 19.5% |  | 16.2% | > 0.5 µM |  |
| Cc1cc(Nc2cncc(N)n2)c(=O)n2c1C(=O)NC21CCCCC1 | > 0.5 µM |  |  |  |  |  | 25.3% |  | 33.2% | > 0.5 µM |  |
| Cc1cccnc1Nc1cc(C)c2n(c1=O)C1(CCCCC1)NC2=O | > 0.5 µM |  |  |  |  |  | 17.8% |  | 23% | > 0.5 µM |  |
| Cc1cccc(Nc2cc(C)c3n(c2=O)C2(CCCCC2)NC3=O)n1 | > 0.5 µM |  |  |  |  |  | 19.8% |  | 13.4% | > 0.5 µM |  |
| Cc1cc(Nc2cc(N)ccn2)c(=O)n2c1C(=O)NC21CCCCC1 | > 0.5 µM |  |  |  |  |  | 43.4% |  | 30.8% | > 0.5 µM |  |
| Cc1cc(Nc2cccnc2)c(=O)n2c1C(=O)NC21CCCCC1 | > 0.5 µM |  |  |  |  |  | 20.2% |  | 13.3% | > 0.5 µM |  |
| Cc1cc(Nc2cc(N3CCCCC3)ncn2)c(=O)n2c1C(=O)NC21CCCCC1 | 0.452 µM |  |  |  |  |  | 37.5% |  | 50.3% | 0.476 µM |  |
| Cc1cc(Nc2cnccn2)c(=O)n2c1C(=O)NC21CCCCC1 | > 0.5 µM |  |  |  |  |  | 47.6% |  | 36.8% | 0.466 µM |  |
| Cc1cc(Nc2cn(C)nc2C#N)c(=O)n2c1C(=O)NC21CCCCC1 | > 0.5 µM |  |  |  |  |  | 10.5% |  | 11.9% | > 0.5 µM |  |
| Cc1cc(Nc2cc(N3CCOCC3)ncn2)c(=O)n2c1C(=O)NC21CCCCC1 | 0.454 µM |  |  |  |  |  | 21.4% |  | 35.5% | > 0.5 µM |  |
| Cc1cc(Nc2cn(C)nc2N)c(=O)n2c1C(=O)NC21CCCCC1 | 0.389 µM |  |  |  |  |  | 53.2% |  | 55.4% | 0.479 µM |  |
| Cc1cc(Nc2cn(C)nc2C(F)F)c(=O)n2c1C(=O)NC21CCCCC1 | > 0.5 µM |  |  |  |  |  | 25.4% |  | 14.6% | > 0.5 µM |  |
| Cc1cc(Nc2ncccn2)c(=O)n2c1C(=O)NC21CCCCC1 | > 0.5 µM |  |  |  |  |  | 22.4% |  | 18.9% | > 0.5 µM |  |
